Results reported in US5100670A, “Use of a bacitracin fraction as a growth promoting agent” (Protor Co., priority 1989, dated 1992).

Key:
insulinase = insulinase inhibitory activity measurement (method of Duckworth et al.); format: biochemical; details: for anti-insulinase activity: general statement in the description; for insulinase inhibitory activity: peaks from CM-Sepharose column, Example 1
Method: The desired fraction is believed to have a molecular weight of about 1400, approximately the same as bacitracin A or F. Their anti-insulinase and antibacterial activities can be assayed in conventional manner. For example, the insulinase inhibitory activity was measured according to the method of Duckworth, et al., Proc. Nat. Acad. Sci., 69, 3698-3702 (1972) and the anti-bacterial activity by the method of Patrick, et al., Antibiotics and Chemotherapy, 1, 133-137 (1951).
A 350 ml bed volume cf CM-Sepharose in a packed column (2.8×56 cm) was equilibrated with 0.05M ammonium acetate, pH 4.5. One gram of commercial bacitracin dissolved in 50 ml of buffer was applied to the packed column. The material was eluted with 2 liter of equilibrating buffer followed by 350 ml of 1M ammonium acetate pH 4.5 buffer. Five ml fractions were collected and absorbance measurements at 252, 280 and 290 nm were made. In addition, insulinase inhibitory activity measurements were made on each peak. […] The peaks were collected, lyophilized, weighed and dissolved in water at 5 mg/ml concentration for specific activity measurements. The material collected with the second buffer contained 5-10% of the total weight of the applied material and 90% of the total insulinase inhibitory capacity. The specific activity of this material was 10-12 times that of the starting commercial material.

[1] = by the protease insulinase; cited from earlier work

Row | Substance | anti-insulinase activity (insulinase) | insulinase inhibitory activity (insulinase) | t1/2 of destruction of insulin after injection [1]
1 | bacitracin A | substantially no anti-insulinase activity | negligible | –
2 | bacitracin F | substantially no anti-insulinase activity | negligible | –
3 | insulin | – | – | approximately 40 minutes
